Test system: ERK/MAPK signaling pathway
Experiment: ERK/MAPK and S6 activation in iOPCs by immunoblotting (phosphorylated to total ratio)
Type: cell-based, human
Text: FIGS. 20A-20E depict the identification of ESR-β signaling pathway in regulating OPC proliferation impaired by UBE3A depletion. FIG. 20A: Immunofluorescence to track estrogen receptor (ESR) expression in OPCs, by staining of all 3 ESRs, ESR-α, ESR-β and GPER (top panels), in iOPCs co-labeled with UBE3A (middle panels) and DAPI; scale bar, 100 μm. […] FIG. 20B: Immunoblotting to assess OPC expression of individual ESRs, by analyzing protein levels of ESR-α, ESR-β and GPER in iOPCs treated with siNC or siUBE3A, normalized to GAPDH and expressed relative to the siNC condition (set as 1.0). After treatment with siUBE3A, expression of ESR-β was decreased, while expression of GPER was increased. n=5-6 experiments. FIG. 20C: The activation of the ERK/MAPK signaling pathway in OPCs, particularly downstream of ESR-β, was analyzed in iOPCs subjected to 6 knockdown conditions: siNC, siUBE3A, siESRα, siESRβ, and combinations of siUBE3A with siESRα or siESRβ. These were followed by treatment with vehicle control or the ESR-β agonist AC-186 (10 μM, 30 min). The activation of ERK and its substrate S6 was determined by the ratio of phosphorylated to total ERK and S6 levels, adjusted relative to the vehicle control group (standard value of 1.0). ERK phosphorylation and S6 phosphorylation was decreased in cells treated with siESRβ, or siESRβ and siUBE3A combined. n=3 experiments. FIG. 20D: Immunoblotting to evaluate the role of ERK/MAPK activation in the restoration of OPC proliferation following ESR-β activation, with the addition of ERK phosphorylation inhibitors U0126 or PD98059 to UBE3A-depleted OPCs, with or without AC-186 co-treatment (10 μM. 24 hours). The quantification of Ki67 expression and UBE3A levels, being normalized to β-tubulin (TUBB1) and compared to the siNC condition (value of 1.0). n=5 experiments. FIG. 20E: A schematic depicting the regulatory role of ESR-β signaling pathway in OPC proliferation, identified by combining genetic knockdown techniques and pharmacological interventions. Activation of ESR-β selectively triggers the ERK/MAPK pathway, as shown by ERK phosphorylation and the ERK substrate S6 activation, essential for cell proliferation. […] As applicable: statistical significance was determined using One-way ANOVA followed by post-hoc comparisons, with selected comparisons presented. Significance levels marked as *p<0.05. ** p<0.005. *** p<0.001. **** p<0.0001, ns not significant, across relevant comparisons.
The siRNAs targeting UBE3A (Thermo Fisher, #4390815 and #4390816), estrogen receptors (Thermo Scientific #145909 for ESRβ, #145539 for ESRα, and #4390824 for GPER), and negative control (Thermo Scientific, #AM4615) were obtained commercially. The 10-20 nM final concentration was used with Lipofectamine RNAiMAX transfection reagent (Thermo Scientific #13778075) and incubated for at least 48 hours before the treatments of therapeutic compounds or other reagents.
Cells were collected by fast spin down in centrifuge tubes before lysis in RIPA buffer (ThermoFisher, #89901) supplemented with proteinase inhibitor cocktail (Sigma-Aldrich, #5892791001) on ice. Lysates were then spun down at 15000 rpm for 10 mins, the supernatant was collected and mixed with 4× Laemmle sample buffer (Bio-Rad, #1610747) and cooked 10 mins before SDS-PAGE and transferred with Bio-Rad fast transfer system, the membranes were blocked for one hour in 1× Tris Buffered Saline (TBS) with 1% Casein buffer (Bio-Rad, #1610782) and incubated with primary antibodies overnight at 4 degrees. After 3 times washing in TBST washing buffers (ThermoFisher, #28352), the membranes were incubated with HRP conjugated antibodies and developed with Clarity Max™ Western ECL Substrate (Bio-Rad, #1705062) before being filmed in the iBright imaging system.

[1] = UBE3A-depleted iOPCs, AC-186 10 μM, 30 min

Oc1ccc(C2(c3ccccc3F)CCC(F)(F)CC2)cc1 [AC-186]
UBE3A levels [1]: remained unchanged
activity of ERK [1]: restored
activity of S6 [1]: restored
effects on ERK/MAPK activation when ESR-α was knocked down (siESRα): did not reverse the effects of AC-186
effects on ERK/MAPK activation when ESR-β was knocked down (siESRβ): negated
